# Patent publication US4375478A, “Aminobenzoic acid derivatives” (Abbott Laboratories, priority 1982, dated 1983)
# Experiments:
# [1] = tested on: acyl-coenzyme A:cholesterol acyl transferase (ACAT); experiment: Acyl-coenzyme A:cholesterol acyl transferase (ACAT) assay in vitro, liver microsomal protein, cholesterol oleate formation; type: biochemical; settings: for ACAT inhibition: 1.0×10^-4 M; for Cholesterol Oleate CPM + S.D. / Cholesterol Oleate Inhibition Percent: 1.0 × 10^-4 M, Ethanol
# Protocol: Test Compound (final concentration=1.0×10^-4 M) and 120 mcg of liver microsomal protein were preincubated for 5 minutes at 37° C. in 0.1 M phosphate buffer, pH 7.4, containing 6.0×10^-5 M bovine serum albumin and 0.002 M dithiothreitol (final volume=0.189 ml). Oleoyl-1-^14 C-coenzyme A, dissolved in buffer, was added in a volume of 0.011 ml so that the final concentration was 6.0×10^-5 M at a specific activity of 10.8 mCi/mmol (0.11 u Ci/tube). After incubation at 37° C. for 10 minutes, the reaction was stopped with the addition of 4.0 ml of chloroform:methanol at a ratio of 2:1 (C-M). The mixture was shaken after the addition of 0.84 ml of water, and the organic layer was evaporated to dryness. The aqueous phase was extracted again with 4.0 ml of C-M and the organic layer added to the dried residue of the first extractant. After evaporation, the residue was taken up in 0.040 ml of toluene:chloroform (4:1) and 0.020 ml were spotted on a Silica Gel-G TLC plate, 250 u thickness.
# gerbils = experiment: Plasma lipoprotein effects in gerbils; type: in vivo, gerbil; settings: for HDL-C, After Test / LDL-C plus VLDL-C, After Test / Total Cholesterol, After Test / HDL-C, Before Test / LDL-C plus VLDL-C, Before Test / Total Cholesterol, Before Test / HDL-C, Percent Change / LDL-C plus VLDL-C, Percent Change / Total Cholesterol, Percent Change: gerbil plasma; for HDL-C, Before Test / LDL-C plus VLDL-C, Before Test / Total Cholesterol, Before Test: baseline before dosing; for HDL-C, Percent Change / LDL-C plus VLDL-C, Percent Change / Total Cholesterol, Percent Change: p 0.05
# Protocol: Test compounds were suspended in 0.1% methylcellulose in isotonic saline at a concentration such that the desired dose was given in a volume of 4.0 ml/kg.
# On the day before initiation of the experiment and on the day before the last dose, food was removed from the gerbils in the early evening, and at 9 a.m. the next day the animals were bled by heart puncture (0.5 ml) after light ether anesthesia; the animals were dosed approximately 2 hours after bleeding on Day 0 and 2 hours before bleeding on the last dosing day. The blood sample was mixed with a solution of EDTA, 50 mg/ml at pH 7.4, so that the final concentration was 1.5 mg/ml. After swirling, the contents were centrifuged at 1500×g for 10 minutes at 5° C. The plasma was removed from the packed cells and a portion was analyzed for cholesterol utilizing the ABA-100 and A-GENT cholesterol reagent. To 0.100 ml of another portion of plasma was added 0.010 ml of Mg^+2 -phosphotungstate reagent (prepared daily by adding one part of MgCl2, 1.5 M, and 4 parts of sodium phosphotungstate, 4%, adjusted to pH 7.4 with 1.0 N NaOH. The mixture was vortexed and allowed to remain at room temperature for 5 minutes. The sample was centrifuged at 100,000×g for 5 minutes and an aliquot of supernatant analyzed for HDL cholesterol (HDL-C). The difference between total plasma cholesterol and HDL-C (after correction for dilution) was utilized as an estimate of low density plus very low density lipoprotein cholesterol (LDL-C plus VLDL-C). Animals were treated for 5 days in the first experiment and for 4 days in the second.
# Controls and test compounds were evaluated in groups of 12 gerbils. The significance of the changes in the plasma parameters was evaluated by a paired t-test; tests of hypothesis were performed at the 0.05 significance level.
# [2] = Solubility in the ACAT incubation medium with ethanol; type: physicochemical; settings: 1% alcohol, 1.0×10^-4 M
# Protocol: The plate was developed in a hexane:diethyl ether:acetic acid solution (90:10:1) and the cholesterol oleate area was visualized with iodine vapor. The cholesterol oleate spot (Rf=0.70) was scraped from the plate and counted in Packard Scinto Liquid. Samples were run in triplicate, and percent inhibition was calculated utilizing controls with sample solvent only. Compounds were dissolved in ethanol, and the final concentration in the incubation medium was 1.0% in the first experiment and 2.5% in the second.
# [3] = tested on: acyl-coenzyme A:cholesterol acyl transferase (ACAT); settings: 1.0×10^-4 M; cited from earlier work
# [4] = 1% alcohol (first value of the pair)
# [5] = 2.5% alcohol (second value of the pair)
# [6] = 100 mg/kg, four days, no significant difference
# [7] = 100 mg/kg, five days, ± standard deviation
# [8] = 100 mg/kg, five days, significant difference
# [9] = 123 mg/kg, four days, significant difference
smiles,measurement,setting,value
CCCCCCCCCCCCCCCCNc1ccc(C(=O)[O-])cc1.[Na+],ACAT inhibition,[1]; [4],26%
same,ACAT inhibition,[1]; [5],45%
same,Cholesterol Oleate CPM + S.D.,[1]; 1%,1917 ± 33 CPM
same,Cholesterol Oleate Inhibition Percent,[1]; 1%,26%
same,Cholesterol Oleate CPM + S.D.,[1]; 2.5%,735 ± 187 CPM
same,Cholesterol Oleate Inhibition Percent,[1]; 2.5%,45%
same,"HDL-C, After Test","gerbils; 100 mg/kg, four days",45.1 ± 3.8 mg/dL
same,"LDL-C plus VLDL-C, After Test","gerbils; 100 mg/kg, four days",44.9 ± 10.6 mg/dL
same,"Total Cholesterol, After Test","gerbils; 100 mg/kg, four days",90.0 ± 11.7 mg/dL
same,"HDL-C, Before Test","gerbils; 100 mg/kg, four days",47.1 ± 13.4 mg/dL
same,"LDL-C plus VLDL-C, Before Test","gerbils; 100 mg/kg, four days",45.9 ± 15.3 mg/dL
same,"Total Cholesterol, Before Test","gerbils; 100 mg/kg, four days",93.0 ± 13.3 mg/dL
same,"HDL-C, Percent Change",gerbils; [6],-4%
same,"LDL-C plus VLDL-C, Percent Change",gerbils; [6],-2%
same,"Total Cholesterol, Percent Change",gerbils; [6],-3%
same,solubility in incubation medium,[2],not completely soluble
CC(=O)[C@H]1CC[C@H]2[C@@H]3CCC4=CC(=O)CC[C@]4(C)[C@H]3CC[C@]12C [Progesterone],ACAT inhibition,[1]; [4],84%
same,ACAT inhibition,[1]; [5],74%
same,Cholesterol Oleate CPM + S.D.,[1]; 1%,891 ± 555 CPM
same,Cholesterol Oleate Inhibition Percent,[1]; 1%,65%
same,Cholesterol Oleate CPM + S.D.,[1]; 2.5%,453 ± 61 CPM
same,Cholesterol Oleate Inhibition Percent,[1]; 2.5%,66%
same,ACAT inhibition,[1]; at both alcohol concentrations (1% and 2.5%),65-66%
same,"ACAT inhibition, literature value of the reference standard",[3],60%
"CCCCCCCCCCCCCCCCNc1c(Cl)cc(C(=O)O)cc1Cl [Compound B, Sodium (3,5-dichloro-4-hexadecylamino)benzoate]","HDL-C, Before Test",gerbils; [7],51.7 ± 11.1 mg/dL
same,"LDL-C plus VLDL-C, Before Test",gerbils; [7],44.8 ± 7.1 mg/dL
same,"Total Cholesterol, Before Test",gerbils; [7],96.6 ± 12.9 mg/dL
same,"HDL-C, After Test",gerbils; [7],42.0 ± 7.0 mg/dL
same,"LDL-C plus VLDL-C, After Test",gerbils; [7],35.8 ± 6.0 mg/dL
same,"Total Cholesterol, After Test",gerbils; [7],77.7 ± 12.3 mg/dL
same,"HDL-C, Percent Change",gerbils; [8],-19%
same,"LDL-C plus VLDL-C, Percent Change",gerbils; [8],-20%
same,"Total Cholesterol, Percent Change",gerbils; [8],-20%
same,"HDL-C, After Test","gerbils; 123 mg/kg, four days",48.8 ± 9.7 mg/dL
same,"LDL-C plus VLDL-C, After Test","gerbils; 123 mg/kg, four days",32.1 ± 8.8 mg/dL
same,"Total Cholesterol, After Test","gerbils; 123 mg/kg, four days",81.0 ± 10.2 mg/dL
same,"HDL-C, Before Test","gerbils; 123 mg/kg, four days",53.7 ± 9.9 mg/dL
same,"LDL-C plus VLDL-C, Before Test","gerbils; 123 mg/kg, four days",42.9 ± 16.8 mg/dL
same,"Total Cholesterol, Before Test","gerbils; 123 mg/kg, four days",96.6 ± 20.3 mg/dL
same,"HDL-C, Percent Change",gerbils; [9],-9%
same,"LDL-C plus VLDL-C, Percent Change",gerbils; [9],-25%
same,"Total Cholesterol, Percent Change",gerbils; [9],-10%
same,animal deaths in the group,"gerbils; gerbils, groups of 12, four days, 123 mg/kg",One animal died
